Reference: PubChem BioAssay AID270 (DTP/NCI, 2004)
Several values for one entry are separate records, joined by “and”; a condition that tells them apart may be missing. Equal entries are not always repeated. Inconclusive results are not listed.

Tested on: BDF1 mice, s.c. Lewis lung carcinoma, T/C %
Experiment: NCI In Vivo Anticancer Drug Screen. Data for tumor model Lewis Lung Carcinoma (subcutaneous) in B6D2F1 (BDF1) mice
How it was run: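 First, mice carry a transplantable tumor. Next, groups receive either compound or vehicle. Finally, survival or tumor dimensions in the dosed animals are divided by the corresponding control figure.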

[1] = endpoint: mean tumor weight, dose: 50.0 mg/kg/injection, schedule: Q01DX011 (ip), vehicle: other, higher = larger tumour

## O=[N+]([O-])c1ccc2c(N=Nc3c(O)ccc4ccccc34)c(O)cc(S(=O)(=O)O)c2c1
endpoint: mean tumor weight, dose: 180.0 mg/kg/injection, schedule: Q01DX011 (ip), vehicle: saline, higher = larger tumour
  T/C: 59 % of control
endpoint: mean tumor weight, dose: 265.0 mg/kg/injection, schedule: Q01DX011 (ip), vehicle: saline, higher = larger tumour
  T/C: 50 % of control
endpoint: median survival time, dose: 50.0 mg/kg/injection, schedule: Q01DX009 (ip), vehicle: saline, higher = longer survival
  T/C: 111 % of control
endpoint: median survival time, dose: 100.0 mg/kg/injection, schedule: Q01DX009 (ip), vehicle: saline, higher = longer survival
  T/C: 98 % of control
endpoint: median survival time, dose: 200.0 mg/kg/injection, schedule: Q01DX009 (ip), vehicle: saline, higher = longer survival
  T/C: 95 % of control

## CC[C@]1(O)C[C@H]2CN(CCc3c([nH]c4ccccc34)[C@@](C(=O)OC)(c3cc4c(cc3OC)N(C=O)[C@H]3[C@@](O)(C(=O)OC)[C@H](OC(C)=O)[C@]5(CC)C=CCN6CC[C@]43[C@@H]65)C2)C1
endpoint: mean survival time, dose: 0.5 mg/kg/injection, schedule: Q08DX002 (ip), vehicle: saline, higher = longer survival
  T/C: 101 % of control
endpoint: mean survival time, dose: 1.0 mg/kg/injection, schedule: Q08DX002 (ip), vehicle: saline, higher = longer survival
  T/C: 104 % of control
endpoint: mean survival time, dose: 1.5 mg/kg/injection, schedule: Q08DX002 (ip), vehicle: saline, higher = longer survival
  T/C: 106 % of control
endpoint: mean tumor weight, dose: 0.05 mg/kg/injection, schedule: Q01DX011 (ip), vehicle: saline, higher = larger tumour
  T/C: 81 % of control
endpoint: mean tumor weight, dose: 0.1 mg/kg/injection, schedule: Q01DX011 (ip), vehicle: saline, higher = larger tumour
  T/C: 83 % of control
endpoint: mean tumor weight, dose: 0.15 mg/kg/injection, schedule: Q01DX011 (ip), vehicle: saline, higher = larger tumour
  T/C: 87 % of control and 101 % of control
endpoint: mean tumor weight, dose: 0.22 mg/kg/injection, schedule: Q01DX011 (ip), vehicle: saline, higher = larger tumour
  T/C: 88 % of control
endpoint: mean tumor weight, dose: 0.5 mg/kg/injection, schedule: Q01DX011 (ip), vehicle: saline, higher = larger tumour
  T/C: 59 % of control
endpoint: mean tumor weight, dose: 62.5 micrograms/kg/injection, schedule: Q01DX011 (ip), vehicle: saline, higher = larger tumour
  T/C: 59 % of control
endpoint: mean tumor weight, dose: 125.0 micrograms/kg/injection, schedule: Q01DX011 (ip), vehicle: saline, higher = larger tumour
  T/C: 80 % of control
endpoint: mean tumor weight, dose: 250.0 micrograms/kg/injection, schedule: Q01DX011 (ip), vehicle: saline, higher = larger tumour
  T/C: 59 % of control
endpoint: median survival time, dose: 0.12 mg/kg/injection, schedule: Q01DX009 (ip), vehicle: saline, higher = longer survival
  T/C: 116 % of control
endpoint: median survival time, dose: 0.12 mg/kg/injection, schedule: Q04DX003 (ip), vehicle: saline, higher = longer survival
  T/C: 104 % of control
endpoint: median survival time, dose: 0.13 mg/kg/injection, schedule: Q01DX009 (ip), vehicle: saline, higher = longer survival
  T/C: 100 % of control
endpoint: median survival time, dose: 0.25 mg/kg/injection, schedule: Q01DX009 (ip), vehicle: saline, higher = longer survival
  T/C: 108 % of control
endpoint: median survival time, dose: 0.25 mg/kg/injection, schedule: Q04DX003 (ip), vehicle: saline, higher = longer survival
  T/C: 108 % of control
endpoint: median survival time, dose: 0.5 mg/kg/injection, schedule: Q01DX009 (ip), vehicle: saline, higher = longer survival
  T/C: 108 % of control
endpoint: median survival time, dose: 0.5 mg/kg/injection, schedule: Q04DX003 (ip), vehicle: saline, higher = longer survival
  T/C: 88 % of control
endpoint: median survival time, dose: 0.5 mg/kg/injection, schedule: Q08DX002 (ip), vehicle: saline, higher = longer survival
  T/C: 104 % of control
endpoint: median survival time, dose: 1.0 mg/kg/injection, schedule: Q04DX003 (ip), vehicle: saline, higher = longer survival
  T/C: 93 % of control
endpoint: median survival time, dose: 1.0 mg/kg/injection, schedule: Q08DX002 (ip), vehicle: saline, higher = longer survival
  T/C: 104 % of control
endpoint: median survival time, dose: 1.5 mg/kg/injection, schedule: Q08DX002 (ip), vehicle: saline, higher = longer survival
  T/C: 108 % of control
endpoint: median survival time, dose: 2.0 mg/kg/injection, schedule: Q04DX003 (ip), vehicle: saline, higher = longer survival
  T/C: 53 % of control
endpoint: median survival time, dose: 125.0 micrograms/kg/injection, schedule: Q01DX009 (ip), vehicle: saline, higher = longer survival
  T/C: 88 % of control and 118 % of control
endpoint: median survival time, dose: 250.0 micrograms/kg/injection, schedule: Q01DX009 (ip), vehicle: saline, higher = longer survival
  T/C: 93 % of control
endpoint: median survival time, dose: 500.0 micrograms/kg/injection, schedule: Q01DX009 (ip), vehicle: saline, higher = longer survival
  T/C: 97 % of control
endpoint: median tumor weight (est.), dose: 0.12 mg/kg/injection, schedule: Q01DX011 (ip), vehicle: saline, higher = larger tumour
  T/C: 102 % of control
endpoint: median tumor weight (est.), dose: 0.18 mg/kg/injection, schedule: Q01DX011 (ip), vehicle: saline, higher = larger tumour
  T/C: 46 % of control
endpoint: median tumor weight (est.), dose: 125.0 micrograms/kg/injection, schedule: Q01DX009 (ip), vehicle: saline, higher = larger tumour
  T/C: 92 % of control
endpoint: median tumor weight (est.), dose: 250.0 micrograms/kg/injection, schedule: Q01DX009 (ip), vehicle: saline, higher = larger tumour
  T/C: 93 % of control
endpoint: median tumor weight (est.), dose: 500.0 micrograms/kg/injection, schedule: Q01DX009 (ip), vehicle: saline, higher = larger tumour
  T/C: 43 % of control

## S=C(N=Nc1ccccc1)NNc1ccccc1
endpoint: mean tumor weight, dose: 45.0 mg/kg/injection, schedule: Q01DX011 (ip), vehicle: carboxymethylcellulose (CMC), higher = larger tumour
  T/C: 60 % of control

## C=CCNC(=O)NCC=C
endpoint: mean tumor weight, dose: 25.0 mg/kg/injection, schedule: Q01DX011 (ip), vehicle: saline, higher = larger tumour
  T/C: 96 % of control
endpoint: mean tumor weight, dose: 50.0 mg/kg/injection, schedule: Q01DX011 (ip), vehicle: saline, higher = larger tumour
  T/C: 28 % of control
endpoint: mean tumor weight, dose: 100.0 mg/kg/injection, schedule: Q01DX011 (ip), vehicle: saline, higher = larger tumour
  T/C: 16 % of control
endpoint: mean tumor weight, dose: 200.0 mg/kg/injection, schedule: Q01DX011 (ip), vehicle: saline, higher = larger tumour
  T/C: 43 % of control

## CSc1ncnc2c1ncn2C1CCCO1 (stereo not given)
endpoint: mean tumor weight, dose: 10.0 mg/kg/injection, schedule: Q01DX011 (ip), vehicle: other, higher = larger tumour
  T/C: 103 % of control
endpoint: mean tumor weight, dose: 20.0 mg/kg/injection, schedule: Q01DX011 (ip), vehicle: other, higher = larger tumour
  T/C: 53 % of control
endpoint: mean tumor weight, dose: 40.0 mg/kg/injection, schedule: Q01DX011 (ip), vehicle: other, higher = larger tumour
  T/C: 68 % of control
endpoint: mean tumor weight, dose: 80.0 mg/kg/injection, schedule: Q01DX011 (ip), vehicle: other, higher = larger tumour
  T/C: 86 % of control

## S=c1c2[nH]cnc2ncn1CCSC1=NC=NC2=NC=NC21 (stereo not given)
[1]
  T/C: 96 % of control
endpoint: mean tumor weight, dose: 100.0 mg/kg/injection, schedule: Q01DX011 (ip), vehicle: other, higher = larger tumour
  T/C: 53 % of control
endpoint: mean tumor weight, dose: 200.0 mg/kg/injection, schedule: Q01DX011 (ip), vehicle: other, higher = larger tumour
  T/C: 61 % of control
endpoint: mean tumor weight, dose: 400.0 mg/kg/injection, schedule: Q01DX011 (ip), vehicle: other, higher = larger tumour
  T/C: 37 % of control

## C=C(C)C12CC(C)C34OC5(CCCCCCCC(C)C6C(C)C(OC(=O)c7ccccc7)C(O)(C(O)C7(COC(=O)CCCCCCCCCCCCCCC)OC7C3C1O5)C64)O2 (stereo not given)
endpoint: median survival time, dose: 1.0 micrograms/kg/injection, schedule: Q01DX009 (ip), vehicle: Klucel (hydroxypropylcellulose) (HPC), higher = longer survival
  T/C: 93 % of control
endpoint: median survival time, dose: 1.9 micrograms/kg/injection, schedule: Q01DX009 (ip), vehicle: Klucel (hydroxypropylcellulose) (HPC), higher = longer survival
  T/C: 209 % of control
endpoint: median survival time, dose: 2.0 micrograms/kg/injection, schedule: Q01DX009 (ip), vehicle: Klucel (hydroxypropylcellulose) (HPC), higher = longer survival
  T/C: 86 % of control
endpoint: median survival time, dose: 3.8 micrograms/kg/injection, schedule: Q01DX009 (ip), vehicle: Klucel (hydroxypropylcellulose) (HPC), higher = longer survival
  T/C: 208 % of control
endpoint: median survival time, dose: 4.0 micrograms/kg/injection, schedule: Q01DX009 (ip), vehicle: Klucel (hydroxypropylcellulose) (HPC), higher = longer survival
  T/C: 97 % of control
endpoint: median survival time, dose: 7.5 micrograms/kg/injection, schedule: Q01DX009 (ip), vehicle: Klucel (hydroxypropylcellulose) (HPC), higher = longer survival
  T/C: 209 % of control
endpoint: median survival time, dose: 8.0 micrograms/kg/injection, schedule: Q01DX009 (ip), vehicle: Klucel (hydroxypropylcellulose) (HPC), higher = longer survival
  T/C: 96 % of control
endpoint: median survival time, dose: 15.0 micrograms/kg/injection, schedule: Q01DX009 (ip), vehicle: Klucel (hydroxypropylcellulose) (HPC), higher = longer survival
  T/C: 101 % of control
endpoint: median survival time, dose: 16.0 micrograms/kg/injection, schedule: Q01DX009 (ip), vehicle: Klucel (hydroxypropylcellulose) (HPC), higher = longer survival
  T/C: 88 % of control

## CC1CCCCN1CCNc1ccc(CO)c2sc3ccccc3c(=O)c12 (stereo not given)
endpoint: median survival time, dose: 25.0 mg/kg/injection, schedule: Q01DX009 (ip), vehicle: saline with Tween-80, higher = longer survival
  T/C: 108 % of control
endpoint: median survival time, dose: 50.0 mg/kg/injection, schedule: Q01DX009 (ip), vehicle: saline with Tween-80, higher = longer survival
  T/C: 100 % of control
endpoint: median survival time, dose: 100.0 mg/kg/injection, schedule: Q01DX009 (ip), vehicle: saline with Tween-80, higher = longer survival
  T/C: 122 % of control

## CC1(C)N=C(N)N=C(N)N1c1cccc(Br)c1
[1]
  T/C: 16 % of control

## CC(=O)Nc1ccc(Cl)c(Cl)c1
endpoint: median survival time, dose: 50.0 mg/kg/injection, schedule: Q01DX009 (ip), vehicle: Klucel (hydroxypropylcellulose) (HPC), higher = longer survival
  T/C: 120 % of control and 124 % of control
endpoint: median survival time, dose: 100.0 mg/kg/injection, schedule: Q01DX009 (ip), vehicle: Klucel (hydroxypropylcellulose) (HPC), higher = longer survival
  T/C: 106 % of control
endpoint: median survival time, dose: 200.0 mg/kg/injection, schedule: Q01DX009 (ip), vehicle: Klucel (hydroxypropylcellulose) (HPC), higher = longer survival
  T/C: 98 % of control
